Laboratory results taken from ChEMBL document CHEMBL4765277, “Design, synthesis and biological evaluation of novel indazole-based derivatives as potent HDAC inhibitors via fragment-based virtual screening” (Eur J Med Chem, 2020).
Active and inactive are the calls of the source. The rule behind the calls is not given here.

Experiments:
[1] = tested on: HCT-116; assay: Induction of apoptosis in human HCT-116 cells assessed as late apoptotic cells at 3 uM after 24 hrs by Annexin V-FITC/PI staining based flow cytometric analysis (reference value: 5.14%); format: functional
[2] = tested on: MCF7; assay: cells; conditions: Homo sapiens, MCF7, 72 h
Description: Antiproliferative activity against human MCF7 cells assessed as reduction in cell viability after 72 hrs by MTT assay

[3] = tested on: HCT-116; assay: Inhibition of HDAC in human HCT-116 cells assessed as up regulation of acetylated histone H3 protein expression at 1.25 to 10 uM after 8 hrs by Western blot analysis; format: cell-based; conditions: dose 1.25-10 µM
[4] = tested on: HCT-116; assay: Induction of apoptosis in human HCT-116 cells assessed as viable cells at 1 uM after 24 hrs by Annexin V-FITC/PI staining based flow cytometric analysis (reference value: 90.34%); format: functional; conditions: Homo sapiens, HCT-116, read-out: Activity
[5] = target: Histone deacetylase 2 (Homo sapiens, UniProt Q92769); assay: Inhibition of recombinant human C-terminal His-tagged HDAC2 (1 to end residues) expressed in sf9 insect cells using Boc-Lys(Ac)-AMC as substrate incubated for 60 mins by fluorescence assay
Histone deacetylase 2, sequence (Q92769 whole entry): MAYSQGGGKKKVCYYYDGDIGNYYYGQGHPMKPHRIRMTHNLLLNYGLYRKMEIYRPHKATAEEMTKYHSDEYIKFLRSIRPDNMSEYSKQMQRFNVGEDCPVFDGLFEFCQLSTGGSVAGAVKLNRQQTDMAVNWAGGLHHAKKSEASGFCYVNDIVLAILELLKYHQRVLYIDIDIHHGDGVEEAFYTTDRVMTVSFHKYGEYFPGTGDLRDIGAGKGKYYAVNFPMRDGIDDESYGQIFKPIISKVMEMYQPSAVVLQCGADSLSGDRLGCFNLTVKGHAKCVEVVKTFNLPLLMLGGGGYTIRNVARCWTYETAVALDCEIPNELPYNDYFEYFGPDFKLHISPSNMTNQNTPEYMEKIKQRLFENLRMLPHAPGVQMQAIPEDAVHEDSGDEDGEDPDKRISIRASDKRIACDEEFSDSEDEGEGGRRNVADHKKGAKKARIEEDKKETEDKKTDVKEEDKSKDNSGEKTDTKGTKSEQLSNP

[6] = tested on: HCT-116; assay: Induction of cell cycle arrest in human HCT116 cells assessed as cell accumulation at G0/G1 phase at 3 uM after 24 hrs by Rnase/PI staining based flow cytometric analysis (reference value: 48.4%); format: functional
[7] = tested on: HCT-116; assay: Induction of apoptosis in human HCT-116 cells assessed as early apoptotic cells at 10 uM after 24 hrs by Annexin V-FITC/PI staining based flow cytometric analysis (reference value: 4.01%); format: functional
[8] = tested on: HCT-116; assay: Induction of apoptosis in human HCT-116 cells assessed as necrotic cells at 3 uM after 24 hrs by Annexin V-FITC/PI staining based flow cytometric analysis (reference value: 0.51%); format: functional
[9] = target: T1, Histone deacetylase 8 (Homo sapiens, UniProt Q9BY41); assay: Inhibition of recombinant human full length C-terminal His-tagged HDAC8 expressed in sf9 insect cells using Boc-Lys(TFA)-AM as substrate incubated for 60 mins by fluorescence assay
T1 sequence (Q9BY41 whole entry): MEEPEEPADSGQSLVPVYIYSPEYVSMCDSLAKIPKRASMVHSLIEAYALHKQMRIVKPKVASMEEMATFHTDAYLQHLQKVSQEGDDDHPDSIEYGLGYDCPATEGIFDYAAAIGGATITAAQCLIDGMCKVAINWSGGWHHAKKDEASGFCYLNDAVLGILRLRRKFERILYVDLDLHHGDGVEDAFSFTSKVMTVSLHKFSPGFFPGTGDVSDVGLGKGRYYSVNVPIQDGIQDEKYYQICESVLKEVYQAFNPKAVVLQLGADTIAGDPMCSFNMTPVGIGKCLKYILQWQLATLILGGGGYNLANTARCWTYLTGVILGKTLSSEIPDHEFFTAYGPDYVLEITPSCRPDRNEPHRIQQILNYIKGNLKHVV

[10] = tested on: HCT-116; assay: Inhibition of HDAC in human HCT-116 cells assessed as up regulation of acetylated tubulin protein expression at 1.25 to 10 uM after 8 hrs by Western blot analysis; format: cell-based; conditions: dose 1.25-10 µM
[11] = tested on: HCT-116; assay: Induction of apoptosis in human HCT-116 cells assessed as late apoptotic cells at 10 uM after 24 hrs by Annexin V-FITC/PI staining based flow cytometric analysis (reference value: 5.14%); format: functional
[12] = tested on: HCT-116; assay: Induction of apoptosis in human HCT-116 cells assessed as early apoptotic cells at 3 uM after 24 hrs by Annexin V-FITC/PI staining based flow cytometric analysis (reference value: 4.01%); format: functional
[13] = tested on: HCT-116; assay: Induction of apoptosis in human HCT-116 cells assessed as viable cells at 3 uM after 24 hrs by Annexin V-FITC/PI staining based flow cytometric analysis (reference value: 90.34%); format: functional; conditions: Homo sapiens, HCT-116, read-out: Activity
[14] = tested on: HCT-116; assay: Antiproliferative activity against human HCT-116 cells assessed as reduction in cell viability after 72 hrs by MTT assay; format: functional, cell-based; conditions: HCT-116, 72 h
[15] = tested on: HCT-116; assay: Induction of apoptosis in human HCT-116 cells assessed as viable cells at 10 uM after 24 hrs by Annexin V-FITC/PI staining based flow cytometric analysis (reference value: 90.34%); format: functional; conditions: read-out: Activity
[16] = tested on: HCT-116; assay: Induction of apoptosis in human HCT-116 cells assessed as early apoptotic cells at 1 uM after 24 hrs by Annexin V-FITC/PI staining based flow cytometric analysis (reference value: 4.01%); format: functional
[17] = tested on: HCT-116; assay: Induction of apoptosis in human HCT-116 cells assessed as necrotic cells at 1 uM after 24 hrs by Annexin V-FITC/PI staining based flow cytometric analysis (reference value: 0.51%); format: functional
[18] = tested on: HCT-116; assay: Induction of cell cycle arrest in human HCT116 cells assessed as cell accumulation at S phase at 3 uM after 24 hrs by Rnase/PI staining based flow cytometric analysis (reference value: 25.2%); format: functional
[19] = tested on: HeLa; assay: cells; format: functional, cell-based; conditions: Homo sapiens, 72 h
Description: Antiproliferative activity against human HeLa cells assessed as reduction in cell viability after 72 hrs by MTT assay

[20] = tested on: HCT-116; assay: Induction of apoptosis in human HCT-116 cells assessed as necrotic cells at 10 uM after 24 hrs by Annexin V-FITC/PI staining based flow cytometric analysis (reference value: 0.51%); format: functional
[21] = tested on: HCT-116; assay: Induction of cell cycle arrest in human HCT116 cells assessed as cell accumulation at G2/M phase at 3 uM after 24 hrs by Rnase/PI staining based flow cytometric analysis (reference value: 26.4%); format: functional
[22] = tested on: HCT-116; assay: Induction of apoptosis in human HCT-116 cells after 24 hrs by Annexin V-FITC/PI staining based flow cytometric analysis; format: functional, cell-based
[23] = target: Histone deacetylase 1 (Homo sapiens, UniProt Q13547); assay: Inhibition of recombinant human C-terminal His/FLAG-tagged HDAC1 (1 to end residues) expressed in sf9 insect cells using Boc-Lys(Ac)-AMC as substrate incubated for 60 mins by fluorescence assay
Histone deacetylase 1, sequence (Q13547 whole entry): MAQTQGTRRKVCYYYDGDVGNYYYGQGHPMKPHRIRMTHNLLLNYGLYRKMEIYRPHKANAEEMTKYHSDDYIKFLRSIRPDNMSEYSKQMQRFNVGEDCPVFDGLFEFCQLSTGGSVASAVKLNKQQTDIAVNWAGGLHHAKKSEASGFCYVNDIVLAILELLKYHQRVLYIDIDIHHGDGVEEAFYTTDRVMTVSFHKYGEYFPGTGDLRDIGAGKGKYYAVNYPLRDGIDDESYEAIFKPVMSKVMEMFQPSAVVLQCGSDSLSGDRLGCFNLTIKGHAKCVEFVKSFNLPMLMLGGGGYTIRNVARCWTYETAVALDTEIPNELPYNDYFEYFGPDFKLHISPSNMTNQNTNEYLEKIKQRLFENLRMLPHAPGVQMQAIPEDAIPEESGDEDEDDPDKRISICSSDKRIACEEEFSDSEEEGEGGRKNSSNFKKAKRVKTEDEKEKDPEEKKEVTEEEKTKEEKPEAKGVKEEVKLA

[24] = tested on: HCT-116; assay: Induction of apoptosis in human HCT-116 cells assessed as late apoptotic cells at 1 uM after 24 hrs by Annexin V-FITC/PI staining based flow cytometric analysis (reference value: 5.14%); format: functional

For COc1ccc(-c2ccc3c(NC(=O)CCCCCCC(=O)NO)n[nH]c3c2)cc1, the Activity [1] was 54.58%, the IC50 [2] was 900 nM and the inhibition [3] was “Active”. For the same compound, the viability at 1 µM [4] was 42.4%, the IC50 [5] was 4.2 nM and the Activity [6] was 29.8%. For the same compound, the Activity [7] was 15.64%, the Activity [8] was 0.33% and the IC50 [9] was 3.6 nM. For the same compound, the inhibition [10] was “Active”, the Activity [11] was 62.58% and the Activity [12] was 13.72%. The viability at 3 µM [13] was 31.4%, the IC50 [14] was 2100 nM and the viability at 10 µM [15] was 20.6%. It also gave an Activity [16] of 17.34%, an Activity [17] of 0.27% and an Activity [18] of 26.9%. It also gave an IC50 [19] of 4400 nM, an Activity [20] of 1.19% and an Activity [21] of 43.3%. The Activity [22] was “Dose-dependent effect”, the IC50 [23] was 2.7 nM and the Activity [24] was 40.02%.
